The source made the active and inactive calls. The calls are words filed in the database; no cut-off is given here.
Legend:
[1] = Stability in human liver microsomes assessed as metabolic turnover at 2.5 mM preincubated for 5 mins followed by phase 1 cofactor NADPH addition measured for 60 mins by HPLC analysis; format: ADME, Microsome; conditions: read-out: Drug metabolism
[2] = Stability in human liver microsomes at 2.5 mM measured up to 60 mins in absence of phase 2 cofactor UDP-GlcUA/NADPH by HPLC analysis; format: ADME, Microsome; conditions: 1 h, 2500 µM
[3] = Stability in human liver microsomes at 2.5 mM measured up to 60 mins in absence of phase 1 cofactor NADPH by HPLC analysis; format: ADME, Microsome; conditions: 1 h, 2500 µM
Rattus norvegicus [4] = experiment: Inhibition of icilin-induced wet-dog shake in Wistar rat model at 10 mg/kg, ip treated 2 hrs prior to icilin challenge measured for 30 mins; format: functional, organism-based
Rattus norvegicus [5] = experiment: Inhibition of icilin-induced wet-dog shake in Wistar rat model at 10 mg/kg, ip treated 30 mins prior to icilin challenge measured for 30 mins; format: functional, organism-based

Compound	metabolised at 1 h [1]	Stability [2]	Stability [3]	inhibition (Rattus norvegicus [4])	inhibition (Rattus norvegicus [5])
COC(=O)[C@@H]1Cc2c([nH]c3ccccc23)[C@@H](c2ccccc2)N1Cc1ccccc1	1.1 to 72%	Stable	Stable	–	–
O=C1N[C@H](Cc2ccccc2)C(=O)N2Cc3[nH]c4ccccc4c3C[C@@H]12	1.1 to 72%	Stable	Stable	–	–
COC(=O)CC[C@H]1N[C@H](C(=O)NCc2ccc(F)cc2)Cc2c1[nH]c1ccccc21	1.1 to 72%	–	–	–	–
COC(=O)C(Cc1c[nH]c2ccccc12)N(Cc1ccccc1)Cc1ccccc1 (centres undefined)	–	Stable	Stable	inactive	Active
O=C1[C@@H]2Cc3c([nH]c4ccccc34)[C@@H](c3ccc(Cl)cc3)N2C(=O)N1Cc1ccc(F)cc1	26.5%	Stable	Stable	–	–
